In ChEMBL document CHEMBL4000188, “Synthesis and antimicrobial evaluation of novel analogues of dehydroabietic acid prepared by CH-Activation” (Eur J Med Chem, 2017):
Values after ≈ are worked out from the molar mass of the structure shown. Active and inactive are the calls of the source. The rule behind the calls is not given here.

What was measured:
[1] = system: Staphylococcus aureus; experiment: Anti-bacterial activity against methicillin/oxacillin-resistant Staphylococcus aureus ATCC 43300 at 32 ug/ml measured after 18 hrs; type: functional
[2] = Solubility of the compound in DMSO; type: physicochemical
[3] = system: Staphylococcus aureus; experiment: Anti-bacterial activity against methicillin-resistant Staphylococcus aureus ATCC 43300 measured after 18 hrs; type: functional; details: ATCC 43300, 18 h

Row | SMILES | Activity [1] | solubility [2] | other results
1 | COc1ccc(C[C@@]2(C(=O)O)CCC[C@]3(C)c4ccc(C(C)C)cc4CC[C@@H]23)cc1 | Active | – | –
2 | Cc1ccc(C[C@@]2(C(=O)O)CCC[C@]3(C)c4ccc(C(C)C)cc4CC[C@@H]23)cc1 | Active | – | –
3 | CC(C)c1ccc2c(c1)CC[C@H]1[C@](Cc3ccc(C(F)(F)F)cc3)(C(N)=O)CCC[C@]21C | – | Insoluble | –
4 | Cc1ccc(C[C@@]2(C(N)=O)CCC[C@]3(C)c4ccc(C(C)C)cc4CC[C@@H]23)cc1 | – | Insoluble | –
5 | CC(C)c1ccc2c(c1)CC[C@H]1[C@](Cc3ccc(C(F)(F)F)cc3)(C(=O)O)CCC[C@]21C | Active | – | –
6 | CC(C)c1ccc2c(c1)CC[C@H]1[C@](Cc3ccc(C(=O)O)cc3)(C(N)=O)CCC[C@]21C | – | – | MIC80 [3]: 32 µg/mL (≈ 76.3 µM)
7 | COc1ccc(C[C@@]2(C(N)=O)CCC[C@]3(C)c4ccc(C(C)C)cc4CC[C@@H]23)cc1 | – | Insoluble | –
8 | CN[C@H](CC(C)C)C(=O)N[C@H]1C(=O)N[C@@H](CC(N)=O)C(=O)N[C@H]2C(=O)N[C@H]3C(=O)N[C@H](C(=O)N[C@H](C(=O)O)c4cc(O)cc(O)c4-c4cc3ccc4O)[C@H](O)c3ccc(c(Cl)c3)Oc3cc2cc(c3O[C@@H]2O[C@H](CO)[C@@H](O)[C@H](O)[C@H]2O[C@H]2C[C@](C)(N)[C@H](O)[C@H](C)O2)Oc2ccc(cc2Cl)[C@H]1O [VANCOMYCIN] | – | – | MIC80 [3]: 1 µg/mL (≈ 0.69 µM)
